Source: PubChem BioAssay AID1013 (Columbia University Molecular Screening Center, 2008)
The source made the active and inactive calls. No rule for the calls is given here.

Test: blockers of VCAM1 upregulation by TNFa – imaging, TNFa stimulus, retest and dose response, confirmation (AID 1013);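 as to cell count: compound on cells 1 h before TNFa then 24 h more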
Settings: TNFa-stimulated cells, VCAM1 expression imaging; at 2 µM; stronger effect = higher value

Compound	inhibition
CCN1C(=O)CSC1=NC12CC3CC(CC(C3)C1)C2	-5.9% (inactive)
N#CCc1nc2c3c4c(sc3ncn2n1)CCCC4	62.9% (inactive)
N#Cc1nc(-c2ccco2)oc1N1CCOCC1	-13.5% (inactive)
CC(=O)Nc1nc2cc3c(cc2s1)OCO3	-1.4% (inactive)
O=C(CS(=O)c1ccc(C(F)(F)F)cc1[N+](=O)[O-])Oc1ccccc1 (stereo not given)	56.9% (inactive)
CC1=C(C#N)C(Nc2cccc(C)n2)(C(F)(F)F)C(=O)N1 (stereo not given)	-1% (inactive)
CCOC(=O)c1ccc(-n2c(=S)sc3c(=O)[nH]c(C)nc32)cc1	-10.7% (inactive)
CCOC(=O)c1oc2ccccc2c1NC(=O)Cc1cccs1	-16.8% (inactive)
COC(=O)c1[nH]c2cc(OC)ccc2c1NC(=O)CN1CCC(C(N)=O)(N2CCCCC2)CC1	-3.9% (inactive)
CCc1nc2oc3ccccc3c(=O)c2c(=O)n1CCOC	-0.1% (inactive)
Cc1nc(S(=O)(=O)N(C)Cc2ccccc2)c(C#N)c(C)c1Cl	1.7% (inactive)
COc1ccc(S(=O)(=O)N2CCCC2C(=O)Nc2ccc(C)cc2)cc1 (stereo not given)	-4% (inactive)
COc1cccc(CSc2nc3ccccc3cc2C=O)c1	43.3% (inactive)
C=CCOC(=O)C1=C(C)OC(N)=C(C#N)C12C(=O)N(CN1CCOCC1)c1ccccc12 (stereo not given)	-12.1% (inactive)
COc1ccc(Cl)c(NC(=O)Nc2c(C)n(-c3ccccc3)c(=O)n2C)c1	-17.4% (inactive)
Cc1cc(C)cc(OCCCCCNCCO)c1	-9.9% (inactive)
Cc1cc(C)cc(OCc2nnc(SCC(=O)N3CCN(c4ccccc4)CC3)o2)c1	-2% (inactive)
O=C(C1CCC1)N1CCc2cc(S(=O)(=O)Nc3ccc4c(c3)OCCO4)ccc21	-2.3% (inactive)
CCNC(=O)CCn1nc(-c2ccc(Cl)cc2)c2ccccc2c1=O	-0.3% (inactive)
COc1ccc(Oc2cc(NC(=O)c3nn(C)cc3[N+](=O)[O-])cc([N+](=O)[O-])c2)cc1	74.7% (inactive)
COc1ccc(-c2cc(=O)[nH]c(NCc3ccccc3)n2)cc1	15.6% (inactive)
Cc1ccc(-n2nc3ccc(NC(=O)/C=C/c4ccco4)cc3n2)cc1C	14% (inactive)
S=c1[nH]nc(COc2ccc3c(c2)OCO3)n1-c1ccccc1	1% (inactive)
CCn1c(SCC(=O)Nc2cc(C)on2)nnc1-c1ccccc1	-7.4% (inactive)
C=C1N2CCC(CC2)C1(O)c1ccccc1C (stereo not given)	-7.5% (inactive)

Compound	inhibition
CCCCN(C(=O)NC(=O)Nc1cccc(C)c1C)S(C)(=O)=O	9.3% (inactive)
CN1C(=O)N(C)C(=O)C2(Cc3ccccc3N3CCOCC32)C1=O (stereo not given)	6.4% (inactive)
O=C(Oc1csc(=S)n1C(=O)c1ccccc1)c1ccccc1	4% (inactive)
CCOC(=O)c1cnn(-c2nc(-c3ccc(C)cc3)cs2)c1C(F)(F)F	8.3% (inactive)
O=C(c1ccc2c(c1)ncn2C1CCCCC1)N1CCC2(CC1)OCCO2	4.9% (inactive)
CC1(C)Cc2c(oc3ncn4ncnc4c23)CO1	-8% (inactive)
CCNc1nc(NCC)n2c(SCc3ccc(F)cc3)nnc2n1	-6.3% (inactive)
CSc1ccc(S(=O)(=O)Nc2ccc3c4c(cccc24)CC3)cc1	17.6% (inactive)
Cn1c(CNc2ccccc2O)nc2ccccc21	11.9% (inactive)
Cc1ccccc1-c1nc(CN2CCC(C(=O)NCCCN3CC(C)CC(C)C3)CC2)c(C)o1 (stereo not given)	21.3% (inactive)
CCOc1cc(S(=O)(=O)Nc2ccccc2CC)ccc1Cl	-2.9% (inactive)
CCOC(=O)C1=C(CSc2nc3c(cc2C#N)CN(C)CC3)OC(N)=C(C#N)C1c1ccccc1 (stereo not given)	-5.4% (inactive)
Cc1nc2ccccc2n1CCCOc1ccccc1	-0.7% (inactive)
COc1ccc(CN2C(=O)[C@@H]3C(c4ccc(F)cc4)=NO[C@@H]3C2=O)cc1	-6.1% (inactive)
O=C(CC(c1ccccc1)c1ccccc1)NCC1CCCO1 (stereo not given)	-7.2% (inactive)
Cc1cccc(C(=O)Oc2ccccc2C2C[C@]3(C)CC(=O)NC3N2C(=O)c2cccc(C)c2)c1 (stereo not given in full)	-2.5% (inactive)
C=CC(=O)Nc1ccc(Br)cc1	-8.4% (inactive)
COc1ccc(-c2c/c(=N\c3nc(-c4ccccc4)c(C)s3)c3ccccc3o2)cc1O	34.3% (inactive)
OCCN=C(c1ccccc1)C12CN3CN(CN(C3)C1)C2	-1.2% (inactive)
Cc1nc(SCc2ccc(Br)cc2)[nH]c(=O)c1C	5.1% (inactive)
COc1ccc(-c2cc3ccc(OCc4nn[nH]n4)cc3oc2=O)cc1OC	-18.3% (inactive)
Nc1nc2c3ccccc3nc(Cc3ccccc3)n2n1	-8.7% (inactive)
Cc1cccc(OCCN2CSC(=S)N(C)C2)c1	-5.7% (inactive)
COc1ccc(CC(=O)Nc2ccc(-c3noc(-c4cccc(OC)c4)n3)cc2)cc1	5.5% (inactive)
CNC(=O)CN(c1ccc(OC)cc1)S(=O)(=O)c1ccc(F)cc1	6.8% (inactive)

Compound	inhibition
C/C(=C\C(=O)c1cccnc1)Nc1ccc(C)c(C)c1	-15.6% (inactive)
CC(C)(CO)NC(=O)CCCOc1ccc(Cl)cc1Cl	-18.9% (inactive)
CCN1CCC2(CC1)C(C#N)=C(N)Oc1c2sc2nc(C)cc(C)c12	-4.5% (inactive)
O=C(CN1CCSCC1)N1CCc2[nH]c3ccc(Br)cc3c2C1	-11.1% (inactive)
CCn1c(SCC(=O)NC(C)c2ccccc2)nc2ccccc21 (stereo not given)	-13.3% (inactive)
CC(CCc1ccccc1)NC(=O)c1ccc(Br)o1 (stereo not given)	-4.5% (inactive)
Cc1cc(NC(=O)C2C3C=CC(C3)C2C(=O)O)no1 (stereo not given)	-1.8% (inactive)
Cc1cccc(N=C2NC(=O)CS2)c1C	-7.6% (inactive)
O=C(O)C1CCC(N2C(=O)C3CCCCC3C2=O)CC1 (stereo not given)	12.7% (inactive)
O=C1C2CCCN2C(c2cccnc2)N1c1ccc(Cl)c(Cl)c1 (stereo not given)	-2.6% (inactive)
COc1ccc(OC)c2sc(NC(=O)CCS(=O)(=O)c3ccccc3)nc12	23% (inactive)
CCCC(C(=O)NC1CCCC1)N(CCCN1CCOCC1)C(=O)c1snc(C(N)=O)c1N (stereo not given)	4.4% (inactive)
CCn1c(SCC(=O)N2CCN(c3cccc(Cl)c3)CC2)nc2ccccc2c1=O	8.3% (inactive)
O=C(Oc1ccc2ccc(=O)oc2c1)N1CCOCC1	1.4% (inactive)
O=S(=O)(c1cccc(-n2cnnn2)c1)N1CCOCC1	-4.6% (inactive)
C=CCc1ccccc1OCC(O)CNC (stereo not given)	5.5% (inactive)
CN1CCc2nc3sc(C#N)c(N)c3c(-c3cccs3)c2C1	-13.9% (inactive)
COc1ccc(-c2nnc(SCC(=O)NC3CCCCC3)o2)cc1OC	-4.1% (inactive)
O=C(NCc1ccco1)C1CC(=O)N(c2ccc(F)cc2)C1 (stereo not given)	6% (inactive)
O=c1ccc(Oc2nc(N3CCOCC3)nc(N3CCOCC3)n2)nn1-c1ccccc1	9% (inactive)
CCOc1cc(/C=C2/C(=O)N(c3ccccc3)N=C2C)ccc1OC(=O)c1ccco1	3.9% (inactive)
Cn1nc(C(=O)NCC2CCCO2)c2ccccc2c1=O (stereo not given)	-9% (inactive)
COC(=O)Sc1nc(N2CCOCC2)c2c(c1C#N)CC(C)(C)OC2	-5.9% (inactive)
CSc1nnc2n(-c3ccccc3)c(=O)c3c4c(sc3n12)CCC4	-8.1% (inactive)
CCOC(=O)N1CCC(NC(=O)c2ccc(CS(=O)(=O)c3ccc(OC)cc3)o2)CC1	-7.8% (inactive)

Compound	inhibition
NC(=O)COC(=O)CCCc1c[nH]c2ccccc12	0.5% (inactive)
CCn1c(SCC(=O)Nc2ccc(C(=O)OC)cc2)nnc1-c1cccs1	10.1% (inactive)
COc1cc2[nH]cc(C(=O)NCCc3ccccc3)c(=O)c2cc1OC	-5.6% (inactive)
COc1ccc(S(=O)(=O)Nc2nc3n(n2)C(c2ccc(Cl)cc2)CC(=O)N3)cc1 (stereo not given)	-17.4% (inactive)
COc1ccc(C(c2sc3ncnn3c2O)N2CC(C)OC(C)C2)cc1OC (stereo not given)	14.8% (inactive)
Cc1cc(C(=O)NN=C2C3CC4CC(C3)CC2C4)c2ccccc2n1	-1.3% (inactive)
CCOc1ccc(C=O)cc1CN1CCCCC1	1.5% (inactive)
c1ccc(-c2nnc(CSc3nncs3)o2)cc1	-12% (inactive)
COc1ccc(-c2nc(-c3ccc(NC(=O)c4ccc(Br)o4)cc3)no2)cc1OC	11.9% (inactive)
CCOc1ccc2ccccc2c1/C=N/n1cncn1	2.4% (inactive)
CC1Oc2ccccc2C=C1/C=C1/SC(N2CCOCC2)=NC1=O (stereo not given)	-2.1% (inactive)
COc1cccc(C(=O)COc2cccc(NC(=O)c3cccc([N+](=O)[O-])c3)c2)c1	1.6% (inactive)
C[n+]1ccc(/C=C/c2ccc(Br)cc2)cc1	13.1% (inactive)
CN(Cc1ccccc1)S(=O)(=O)c1ccc(NC(=S)NC(=O)C2CCCC2)cc1	17.2% (inactive)
CCCc1cc(=O)[nH]c(SCC(=O)Nc2nonc2N)n1	9.8% (inactive)
COCCCNC(=O)c1cn(C)c(=O)c2cc(OC)c(OC)cc12	4.1% (inactive)
CS(=O)(=O)N(CC(=O)NCc1ccccc1Cl)Cc1ccccc1	-0.5% (inactive)
CC(N)Cc1ccccc1Sc1ccc(O)cc1 (stereo not given)	-14.6% (inactive)
N=C1C(c2nc3ccccc3s2)=C(O)CN1Cc1ccco1	-3% (inactive)
COc1ccc(C(C)(C)C)cc1S(=O)(=O)N1CCN(C)CC1	-3.3% (inactive)
CCCOC(=O)C1C2C=C[C@]3(CN(CCc4ccccc4)C(=O)[C@H]13)O2 (stereo not given in full)	4.5% (inactive)
Oc1ccc(N2CCN(c3ncnc4sc5c(c34)CCC5)CC2)cc1	10.1% (inactive)
Cc1c(Cl)cccc1-n1ccnc1SCC(=O)O	-7.8% (inactive)
C(=N\Nc1nc2ccccc2s1)/c1cccs1	5.1% (inactive)
Clc1ccc(-n2ncc3c(NCc4ccc5c(c4)OCO5)ncnc32)cc1	5.1% (inactive)

Same assay, conditions: TNFa-stimulated cells, VCAM1 expression imaging; cell count; at 10 µM; stronger effect = lower value

Compound	cell count [%]
N#CCc1nc2c3c4c(sc3ncn2n1)CCCC4	87.3
O=C(CS(=O)c1ccc(C(F)(F)F)cc1[N+](=O)[O-])Oc1ccccc1 (stereo not given)	109
COc1cccc(CSc2nc3ccccc3cc2C=O)c1	91.7
COc1ccc(Oc2cc(NC(=O)c3nn(C)cc3[N+](=O)[O-])cc([N+](=O)[O-])c2)cc1	114
COc1ccc(-c2c/c(=N\c3nc(-c4ccccc4)c(C)s3)c3ccccc3o2)cc1O	98
